Earlier results in US20100316580A1, “ORAL CARE PRODUCT AND METHODS OF USE THEREOF” (Colgate-Palmolive Company, priority 2008, published 2010).

solubility in water: only slightly soluble
SMILES: Oc1cc(Cl)ccc1Oc1ccc(Cl)cc1Cl [triclosan, 5-chloro-2-(2,4-dichlorophenoxyphenol]
